Assays:
ChR2-ESC-derived neurons = experiment: Patch-clamp recording of excitatory postsynaptic currents in ChR2-ESC-derived neurons; format: cell-based, mouse; details: differentiation day 28
From the text: (§1) We first verified that ChR2-ESCs were capable of neural lineage differentiation, using a retinoic acid-based neural differentiation protocol (FIG. 8c). At differentiation day 8, 40±10% of the cells expressed the neural lineage marker nestin. By day 14, a dense network of β-3-tubulin-positive ESC-derived immature neurons could be detected, followed by expression of the mature neuronal cytoskeletal protein MAP2 and the vesicular glutamate transporter II (vGlutll).
Neuronal differentiation was performed as previously described, with modifications. ESCs were plated on matrigel-coated dishes in embryoid body stage in complete ESC medium (see above). […]
For acute slice electrophysiological experiments, 1 week post cell transplantation, 250 μm cortical slices were prepared in ice-cold cutting buffer (64 mM NaCl, 25 mM NaHCO3, 10 mM glucose, 120 mM sucrose, 2.5 mM KCl, 1.25 mM NaH2PO4, 0.5 mM CaCl2 and 7 mM MgCl2, equilibrated with 95% O2/5% CO2) using a vibratome (VT 1000 S; Leica). […] Images were recorded with a CCD camera (Retiga Exi, Qimaging) by Qimaging software. […] Membrane currents were measured with the patch-clamp technique in whole-cell mode using Axon Multiclamp 700B (Axon Instruments) amplifiers. […] Through a 20× objective lens, power density of the blue light was 8-12 mW/mm^2, measured by power meter (Newport). […]

ChR2-ESCs = experiment: Retinoic acid-based neural differentiation of ChR2-ESCs, nestin expression; format: cell-based, mouse; details: differentiation day 8; retinoic acid-based neural differentiation protocol
From the text: as §1
Neuronal differentiation was performed as previously described, with modifications. ESCs were plated on matrigel-coated dishes in embryoid body stage in complete ESC medium (see above). 24 hours later, medium was changed to ESC medium lacking LIF and including 5 μM retinoic acid, and changed every second day for 5 days. As a second differentiation step, cells were incubated with neural expansion medium for 7 days consisting of N2 supplement, SHH (50 ng/ml), FGF-8b (100 ng/ml), bFGF (10 ng/ml) and ascorbic acid (200 μM, Sigma) in DMEM/F12 and changed every two days. Thereafter cells were cultured in N2 and ascorbic acid in DMEM/F12.
Cells were fixed with 4% paraformaldehyde in PBS for 30 min at room temperature. Fixation was stopped by washing cells three times with 0.1M glycine/PBS. Cells were permeabilized and blocked (4% BSA/0.4% saponin/PBS) for 30 min and incubated in primary antibody solution at 4° C. overnight. […]

Compound	block of excitatory postsynaptic currents (ChR2-ESC-derived neurons)	cells expressing the neural lineage marker nestin (ChR2-ESCs) [%]
N#Cc1cc2[nH]c(=O)c(=O)[nH]c2cc1[N+](=O)[O-] [CNQX]	blocked	–
NC(CCCP(=O)(O)O)C(=O)O [D-AP5]	blocked	–
CC1=C(/C=C/C(C)=C/C=C/C(C)=C/C(=O)O)C(C)(C)CCC1 [RA, retinoic acid]	–	40±10

Source: US10711242B2, “Apparatus and methods for controlling cellular development” (The Board of Trustees of the Leland Stanford Junior …, priority 2008, dated 2020)
